According to ChEMBL document CHEMBL5131414, “Design, synthesis, and evaluation of phenylpiperazine-phenylacetate derivatives as rapid recovery hypnotic agents” (Bioorg Med Chem Lett, 2022):

How the values were obtained:
[1] = Toxicity in mouse assessed as lethal dose; conditions: in vivo
[2] = Therapeutic index, ratio of LD50 for toxicity in mouse to HD50 for anesthetic activity in mouse; type: organism-based; conditions: in vivo, read-out: TI
[3] = Lipophilicity, logP of the compound; type: physicochemical; conditions: octanol/water
Mus musculus [4] = assay: Anesthetic activity in mouse assessed as concentration required to induce hypnotic effect; type: functional, organism-based
[5] = molecular target: GABA-A receptor; anion channel (Homo sapiens) (UniProt P14867+P47870+P18507+P28472+P48169+Q99928+Q9UN88+P34903+O00591+O14764+Q8N1C3+P18505+P78334+P47869+P31644+Q16445); assay: Inhibition of GABAA receptor (unknown origin) at 50 uM by radioligand receptor binding assay relative to control; type: protein-complex assay
Mus musculus [6] = assay: Anesthetic activity in mouse assessed as time to walk at 2 times of HD50 concentration; type: functional
Mus musculus [7] = assay: Anesthetic activity in mouse assessed as onset time; type: functional
Mus musculus [8] = assay: Anesthetic activity in mouse assessed as time duration of loss of righting reflex; type: functional

SMILES	LD50 [1] [mg/kg]	selectivity ratio [2]	logP [3]	HD50 (median hypnotic dose) (Mus musculus [4]) [mg/kg]	inhibition [5] [%]	Time (Mus musculus [6]) [s]	Time (Mus musculus [7]) [s]	Time (Mus musculus [8]) [s]
COc1cc(CC(=O)OCC(F)(F)F)ccc1OCC(=O)N1CCN(c2ccccc2)CC1	200	6.5	3.4	30.8	29.9	–	–	–
CCOC(=O)Cc1ccc(OCC(=O)N2CCN(c3ccccc3)CC2)c(OCC)c1	208	6.8	3.1	30.6	22.1	–	–	–
CCOc1cc(CC(=O)OC(C)C)ccc1OCC(=O)N1CCN(c2cccc(C)c2C)CC1	200	6.4	4.4	31.4	42.7	–	–	–
CCOc1cc(CC(=O)OC(C)C)ccc1OCC(=O)N1CCN(c2cccc(C(F)(F)F)c2)CC1	163	5.1	4.4	31.6	54.7	–	–	–
CCCOC(=O)Cc1ccc(OCC(=O)N2CCN(c3ccccc3)CC2)c(OC)c1	190	5.7	3.3	33.2	35.6	–	–	–
CCOc1cc(CC(=O)OCC(F)(F)F)ccc1OCC(=O)N1CCN(c2ccccc2)CC1	193	7.8	3.8	24.8	70.6	44.9	7.1	76.5
COc1cc(CC(=O)OCC(F)(F)F)ccc1OCC(=O)N1CCN(c2cccc(Cl)c2Cl)CC1	225	6.5	4.6	34.5	39.4	–	–	–
CCOC(=O)Cc1ccc(OCC(=O)N2CCN(c3cccc(C)c3C)CC2)c(OCC)c1	209	6.5	4.1	32.2	38.7	–	–	–
CCOc1cc(CC(=O)OC(C)C)ccc1OCC(=O)N1CCN(c2cccc(Cl)c2Cl)CC1	254	6.4	4.6	39.5	35.9	–	–	–
CCCOC(=O)Cc1ccc(OCC(=O)N2CCN(c3cccc(C)c3C)CC2)c(OCC)c1	269	6.3	4.6	42.5	45.5	–	–	–
